Patent US9489013B2, “C6-azaspiro iminothiadiazine dioxides as bace inhibitors, compositions, and their use” (Merck Sharp & Dohme Corp., priority 2012, dated 2016)
Read-outs that look alike come from different tables or passages of the source.

Legend:
[1] = biological target: soluble human BACE1 catalytic domain (Homo sapiens (Human), UniProt P56817); experiment: BACE1 HTRF FRET Assay; format: biochemical; settings: Ki calculated from IC50 using the Cheng-Prusoff equation; QSY7-APPswe-Eu substrate, pH 5.0
Chain of soluble human BACE1 catalytic domain (P56817 75-416): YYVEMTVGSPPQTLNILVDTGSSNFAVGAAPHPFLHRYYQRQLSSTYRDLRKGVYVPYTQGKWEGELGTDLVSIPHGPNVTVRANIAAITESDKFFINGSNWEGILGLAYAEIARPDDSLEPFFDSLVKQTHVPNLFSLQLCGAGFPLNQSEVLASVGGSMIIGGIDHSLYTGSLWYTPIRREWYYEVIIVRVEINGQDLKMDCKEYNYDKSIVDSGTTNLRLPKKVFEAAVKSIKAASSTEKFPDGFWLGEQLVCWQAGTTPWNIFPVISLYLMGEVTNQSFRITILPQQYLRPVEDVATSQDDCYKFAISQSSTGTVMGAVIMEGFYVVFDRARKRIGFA
Procedure: A homogeneous time-resolved FRET assay can be used to determine IC50 values for inhibitors of the soluble human BACE1 catalytic domain. […] This substrate contains an N-terminal QSY7 moiety that serves as a quencher of the C-terminal Europium fluorophore (620 nm Em). […] Inhibition of BACE cleavage of the QSY7-APP^swe-Eu substrate by inhibitors is manifested as a suppression of 620 nm fluorescence. […] The reactions are incubated at 30° C. for 1.5 hours. The 620 nm fluorescence is then read on a Rubystar HTRF plate reader (BMG Labtechnologies) using a 50 millisecond delay followed by a 400 millisecond acquisition time window. Inhibitor IC50 values are derived from non-linear regression analysis of concentration response curves.

[2] = biological target: purified human autoBACE-2 (Homo sapiens (Human), UniProt Q9Y5Z0); experiment: BACE-2 Assay (BACE-HTRF assay); format: biochemical; settings: Ki calculated from IC50 using the Cheng-Prusoff equation, pH 5.0, read-out: BACE2 Ki
Chain of purified human autoBACE-2 (Q9Y5Z0 63-473 limits assumed): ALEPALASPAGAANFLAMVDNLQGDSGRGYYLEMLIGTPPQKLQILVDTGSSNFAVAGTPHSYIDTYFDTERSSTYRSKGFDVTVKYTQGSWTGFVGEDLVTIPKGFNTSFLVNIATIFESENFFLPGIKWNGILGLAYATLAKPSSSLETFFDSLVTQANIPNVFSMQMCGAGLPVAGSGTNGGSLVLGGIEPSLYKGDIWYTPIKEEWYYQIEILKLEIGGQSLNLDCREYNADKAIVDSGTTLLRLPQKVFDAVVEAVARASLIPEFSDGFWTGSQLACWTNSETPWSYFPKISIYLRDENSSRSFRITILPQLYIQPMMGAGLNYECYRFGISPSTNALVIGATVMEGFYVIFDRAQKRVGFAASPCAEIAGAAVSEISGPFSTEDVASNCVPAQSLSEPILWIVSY
Procedure: Inhibitor IC50's at purified human autoBACE-2 are determined in a time-resolved endpoint proteolysis assay that measures hydrolysis of the QSY7-[…]-Eu-amide FRET peptide substrate (BACE-HTRF assay). […] Inhibitor compounds, prepared at 3× the desired final concentration in 1×BACE assay buffer (20 mM sodium acetate pH 5.0, 10% glycerol, 0.1% Brij-35) supplemented with 7.5% DMSO are pre-incubated with an equal volume of autoBACE-2 enzyme diluted in 1×BACE assay buffer (final enzyme concentration 1 nM) in black 384-well NUNC plates for 30 minutes at 30° C. […] DMSO is present at 5% final concentration in the assay. Following laser excitation of sample wells at 320 nm, the fluorescence signal at 620 nm is collected for 400 ms following a 50 μs delay on a RUBYstar HTRF plate reader (BMG Labtechnologies). Raw RFU data is normalized to maximum (1.0 nM BACE/DMSO) and minimum (no enzyme/DMSO) RFU values. […] The Ki values are calculated from the IC50 using the Cheng-Prusoff equation.

[3] = QSY7-EISEVNLDAEFC-Eu-amide substrate

Ki [1] | Ki [2, 3] | Ki ([2]; QSY7-[…]-Eu-amide substrate) | SMILES
3 nM |  |  | COc1ccc(C(=O)Nc2ccc(F)c([C@@]3(C)NC(=N)N(C)S(=O)(=O)[C@@]34CCN(Cc3cscn3)C4)c2)nc1 [Example 8]
1 nM | 2 nM |  | COc1ccc(C(=O)Nc2ccc(F)c([C@@]3(C)NC(=N)N(C)S(=O)(=O)[C@@]34CCN(CC3CCOC3)C4)c2)nc1 (stereo partly shown) [Example 9]
2 nM |  |  | COc1ccc(C(=O)Nc2ccc(F)c([C@@]3(C)NC(=N)N(C)S(=O)(=O)[C@@]34CCN(Cc3ccccn3)C4)c2)nc1 [Example 10]
2 nM | 12 nM |  | COc1ccc(C(=O)Nc2ccc(F)c([C@@]3(C)NC(=N)N(C)S(=O)(=O)[C@@]34CCN(Cc3cccnc3)C4)c2)nc1 [Example 11]
2 nM | 7 nM |  | COc1ccc(C(=O)Nc2ccc(F)c([C@@]3(C)NC(=N)N(C)S(=O)(=O)[C@@]34CCN(CC3CC3)C4)c2)nc1 [Example 12]
3 nM | 9 nM |  | COc1ccc(C(=O)Nc2ccc(F)c([C@@]3(C)NC(=N)N(C)S(=O)(=O)[C@@]34CCN(Cc3cnco3)C4)c2)nc1 [Example 14]
4 nM | 17 nM |  | COc1ccc(C(=O)Nc2ccc(F)c([C@@]3(C)NC(=N)N(C)S(=O)(=O)[C@@]34CCN(Cc3cncnc3)C4)c2)nc1 [Example 15]
4 nM |  |  | COc1ccc(C(=O)Nc2ccc(F)c([C@@]3(C)NC(=N)N(C)S(=O)(=O)[C@@]34CCN(Cc3cnn(C)c3)C4)c2)nc1 [Example 16]
4 nM |  |  | COc1ccc(C(=O)Nc2ccc(F)c([C@@]3(C)NC(=N)N(C)S(=O)(=O)[C@@]34CCN(CC3CC(OC)C3)C4)c2)nc1 (stereo partly shown) [Example 17]
8 nM | 9 nM |  | CN1C(=N)N[C@](C)(c2cc(NC(=O)c3ccc(F)cn3)ccc2F)[C@]2(CCN(Cc3ccncc3)C2)S1(=O)=O [Example 29]
4 nM | 5 nM |  | CN1C(=N)N[C@](C)(c2cc(NC(=O)c3ccc(F)cn3)ccc2F)[C@]2(CCN(Cc3cnco3)C2)S1(=O)=O [Example 30]
2 nM | 5 nM |  | CN1C(=N)N[C@](C)(c2cc(NC(=O)c3ccc(F)cn3)ccc2F)[C@]2(CCN(CC3CC3)C2)S1(=O)=O [Example 31]
3 nM | 5 nM |  | CN1C(=N)N[C@](C)(c2cc(NC(=O)c3ccc(F)cn3)ccc2F)[C@]2(CCN(Cc3cscn3)C2)S1(=O)=O [Example 33]
6 nM | 10 nM |  | COC1CC(CN2CC[C@@]3(C2)[C@@](C)(c2cc(NC(=O)c4ccc(F)cn4)ccc2F)NC(=N)N(C)S3(=O)=O)C1 (stereo partly shown) [Example 34]
2 nM | 6 nM |  | CN1C(=N)N[C@](C)(c2cc(NC(=O)c3ccc(F)cn3)ccc2F)[C@]2(CCN(Cc3cccnc3)C2)S1(=O)=O [Example 35]
2 nM | 5 nM |  | CN1C(=N)N[C@](C)(c2cc(NC(=O)c3ccc(F)cn3)ccc2F)[C@]2(CCN(Cc3cocn3)C2)S1(=O)=O [Example 37]
4 nM | 7 nM |  | CN1C(=N)N[C@](C)(c2cc(NC(=O)c3ccc(F)cn3)ccc2F)[C@]2(CCN(Cc3cncnc3)C2)S1(=O)=O [Example 38]
2 nM | 3 nM |  | CCCCN1CC[C@@]2(C1)[C@@](C)(c1cc(NC(=O)c3ccc(F)cn3)ccc1F)NC(=N)N(C)S2(=O)=O [Example 39]
4 nM | 10 nM |  | CN1C(=N)N[C@](C)(c2cc(NC(=O)c3ccc(F)cn3)ccc2F)[C@]2(CCN(Cc3cnn(C)c3)C2)S1(=O)=O [Example 40]
4 nM | 10 nM |  | CN1C(=N)N[C@](C)(c2cc(NC(=O)c3ccc(F)cn3)ccc2F)[C@]2(CCN(S(=O)(=O)CC3CCCO3)C2)S1(=O)=O (stereo partly shown) [Example 82]
16 nM | 6 nM |  | CN1C(=N)N[C@](C)(c2cc(NC(=O)c3ccc(F)cn3)ccc2F)[C@@]2(CCN(S(=O)(=O)c3ccccc3)C2)S1(=O)=O [Example 91]
22 nM |  | 25 nM | COCC(=O)Nc1ccc(F)c([C@@]2(C)NC(=N)N(C)S(=O)(=O)[C@@]23CCN(Cc2ccccc2)C3)c1 [Example 96]
